Source: ChEMBL document CHEMBL4699598, “Discovery of Novel Substituted N-(4-Amino-2-chlorophenyl)-5-chloro-2-hydroxybenzamide Analogues as Potent Human Adenovirus Inhibitors” (J Med Chem, 2020)

What was measured:
[1] = Cytotoxicity against human A549 cells assessed as reduction in cell viability incubated for 48 hrs by alamarBlue assay; type: cell-based
Human adenovirus 5 [2] = experiment: Antiviral activity against Human adenovirus 5 infected in 293beta5 cells assessed as inhibition of plaque formation at 10 uM incubated for 7 days by GFP reporter gene assay relative to control; type: functional; conditions: Human mastadenovirus C, HEK293, 168 h, time 7 day
[3] = Selectivity index, ratio of CC50 for cytotoxicity against human A549 cells assessed as reduction in cell viability incubated for 48 hrs by alamarBlue assay to IC50 for antiviral activity against Human adenovirus 5 infected in 293beta5 cells assessed as inhibition of plaque formation incubated for 7 days by GFP reporter gene assay; type: toxicity, cell-based; conditions: read-out: Ratio CC50/IC50
Human adenovirus 5 [4] = experiment: Antiviral activity against GFP-fused Human adenovirus 5 infected in 293beta5 cells assessed as inhibition of plaque formation incubated for 7 days by GFP reporter gene assay; type: functional, organism-based; conditions: Human mastadenovirus C, HEK293, 168 h
[5] = Toxicity against cyclophosphamide-immunosuppressed golden syrian hamster assessed as loss of body weight at 1 mg/kg, administered for 14 days; type: organism-based, Mesocricetus auratus; conditions: in vivo, 336 h, time 14 day
Human betaherpesvirus 5 = experiment: Antiviral activity against human cytomegalovirus infected in HFF cells assessed as inhibition of viral replication by measuring number of DNA copies at 5 uM incubated for 72 hrs by RT-PCR analysis (reference value: 100 +/- 25.56 %); type: functional; design: scale not given: the % may be the effect or the level left
Human adenovirus 5 [6] = experiment: Antiviral activity against Human adenovirus 5 infected in 293beta5 cells assessed as inhibition of virus infection at 10 fold IC50 measured after 60 mins by GFP reporter gene assay relative to control; type: functional, HEK293; conditions: 1 h
Human adenovirus 5 [7] = experiment: Antiviral activity against wild-type Human adenovirus 5 infected in human A549 cells assessed as inhibition of viral entry by measuring nuclear associated viral genome level at 10 fold IC50 incubated for 45 mins by RT-PCR analysis (reference value: 100 +/- 1.07 %); type: functional; design: scale not given: the % may be the effect or the level left; conditions: 0.75 h
Human adenovirus 5 [8] = experiment: Antiviral activity against wild-type Human adenovirus 5 infected in human A549 cells assessed as inhibition of viral DNA replication by measuring number of viral DNA copies at 5 uM after 24 hrs by RT-qPCR analysis (reference value: 100 +/- 0.16 %); type: functional; design: scale not given: the % may be the effect or the level left
Human adenovirus 5 [9] = experiment: Antiviral activity against WT-Human adenovirus 5 infected in A549 cells assessed as fold reduction in virus yield at 10 fold of IC50 after 48 hrs endpoint dilution method; type: functional

SMILES	CC50 at 48 h [1] [µM]	inhibition at 10 µM (Human adenovirus 5 [2]) [%]	selectivity ratio at 48 h [3]	IC50 (Human adenovirus 5 [4]) [µM]	further results
O=C(Nc1ccc(NCc2cc(C(F)(F)F)cc(C(F)(F)F)c2)cc1Cl)c1cc(Cl)ccc1O	92.8	100	82.9	1.12	
CC(C)Nc1ccc(NC(=O)c2cc(Cl)ccc2O)c(Cl)c1	11	100	12.5	0.88	
O=C(Nc1ccc(NCc2cccnc2Cl)cc1Cl)c1cc(Cl)ccc1O	100	100	21	4.78	
CCCCCCC(C)Nc1ccc(NC(=O)c2cc(Cl)ccc2O)c(Cl)c1 (stereo not drawn)	23.5	100	73.4	0.32	
O=C(Nc1ccc(NCc2cccc(Br)n2)cc1Cl)c1cc(Cl)ccc1O	92.3	100	40.8	2.26	
CCN(CC)c1ccc(NC(=O)c2cc(Cl)ccc2O)c(Cl)c1	55.5	100	64.5	0.86	
CN(C)c1ccc(NC(=O)c2cc(Cl)ccc2O)c(Cl)c1	85.1	100	44.3	1.92	
O=C(Nc1ccc(NCC2CCCC2)cc1Cl)c1cc(Cl)ccc1O	21.5	100	17.3	1.24	
O=C(Nc1ccc(N(CC2CC2)CC2CC2)cc1Cl)c1cc(Cl)ccc1O	12.8	100	20.7	0.62	
O=C(Nc1cc(NC2CCCC2)ccc1F)c1cc(Cl)ccc1O	44		32.8	1.34	
CN1CCC(CNc2ccc(NC(=O)c3cc(Cl)ccc3O)c(Cl)c2)CC1		0			
O=C(NCc1ccc(NC2CCCC2)cc1Cl)c1cc(Cl)ccc1O	28.3		3.6	7.97	
O=C(Nc1cc(F)cc(C(F)(F)F)c1)c1cc(Cl)ccc1O			667	0.18	
CN(C)c1ccc(CNc2ccc(NC(=O)c3cc(Cl)ccc3O)c(Cl)c2)cc1	24.5	100	9	2.73	
O=C(Nc1ccc(NCc2ccc(Br)cc2)cc1Cl)c1cc(Cl)ccc1O	40.9	100	22.2	1.84	
CN1CCC(Oc2ccc(Cl)cc2C(=O)Nc2ccc(NC3CCCC3)cc2Cl)CC1		0			
CCCCCCCCC(C)Nc1ccc(NC(=O)c2cc(Cl)ccc2O)c(Cl)c1 (stereo not drawn)	21.9	100	18.1	1.21	
O=C(Nc1ccc(NCc2cccc(C(F)(F)F)c2)cc1Cl)c1cc(Cl)ccc1O	13.3	100	15.2	0.88	
O=C(Nc1ccc(NCc2ccc(Cl)cc2)cc1Cl)c1cc(Cl)ccc1O	59.7	100	49.7	1.2	
O=C(Nc1ccc(NCc2ccncc2)cc1Cl)c1cc(Cl)ccc1O	65.3	100	24.6	2.66	
CC(C)[C@H](NC(=O)c1cc(Cl)ccc1O)C(=O)Nc1ccc([N+](=O)[O-])cc1Cl			444	0.45	
CC(C)CNc1ccc(NC(=O)c2cc(Cl)ccc2O)c(Cl)c1	60	100	67.4	0.89	
O=C(Nc1ccc(NCc2ccccc2)cc1Cl)c1cc(Cl)ccc1O	19.7	100	7.8	2.52	
O=C(Nc1ccc(NC2CCCCC2)cc1Cl)c1cc(Cl)ccc1O	68.3		51.1	1.34	
O=C(Nc1ccc(NC2CCCC2)c(Cl)c1)c1cc(Cl)ccc1O	16.9	100	20.1	0.84	
CCNc1ccc(NC(=O)c2cc(Cl)ccc2O)c(Cl)c1	30.2	100	13.9	2.18	
Nc1ccc(NC(=O)c2cc(Cl)ccc2O)c(Cl)c1		0			

SMILES	CC50 at 48 h [1] [µM]	inhibition at 10 µM (Human adenovirus 5 [2]) [%]	selectivity ratio at 48 h [3]	IC50 (Human adenovirus 5 [4]) [µM]	further results
O=C(Nc1ccc(NCc2cc(Cl)cc(C(F)(F)F)c2)cc1Cl)c1cc(Cl)ccc1O	30.9		17.3	1.79	
O=C(Nc1ccc([N+](=O)[O-])cc1Cl)c1cc(Cl)ccc1O [NICLOSAMIDE]		100		0.6	Activity [5]: Non-Toxic; Activity (Human betaherpesvirus 5): 1.7%; inhibition (INH) (Human adenovirus 5 [6]): >=50%
O=C(Nc1ccc(NCc2cnccc2Cl)cc1Cl)c1cc(Cl)ccc1O	126	100	75.7	1.66	
O=C(Nc1ccc(NCCCO)cc1Cl)c1cc(Cl)ccc1O	106				
O=C(Nc1ccc(NCc2cc(Cl)cc(Cl)c2)cc1Cl)c1cc(Cl)ccc1O	13.3	100	9.3	1.43	
O=C(Nc1ccc(NC2CCCC2)cc1Cl)c1cc(Cl)ccc1O	92.9	100	186	0.5	Activity (Human adenovirus 5 [7]): 98.84%; Activity (Human adenovirus 5 [8]): 14.42%; Activity (Human betaherpesvirus 5): 100%; fold change (FC) (Human adenovirus 5 [9]): 17.1; inhibition (INH) (Human adenovirus 5 [6]): >=50%
O=C(Nc1ccc(NC2CCCC2)cc1)c1cc(Cl)ccc1O	10		3.9	2.6	
O=C(Nc1ccc(NCc2ccc(Br)s2)cc1Cl)c1cc(Cl)ccc1O	20.7	100	8	2.58	
O=C(Nc1ccc(N(CCCO)CCCO)cc1Cl)c1cc(Cl)ccc1O	114				
CC(C)(C)OC(=O)N1CCC(Nc2ccc(NC(=O)c3cc(Cl)ccc3O)c(Cl)c2)CC1	100		82.6	1.21	
CCCNc1ccc(NC(=O)c2cc(Cl)ccc2O)c(Cl)c1	22.5	100	4.5	5.04	
CC1(ON(c2ccc(NC(=O)c3cc(Cl)ccc3O)c(Cl)c2)C2(C)CCCC2)CCCC1	18	100	24.3	0.74	
COc1ccc(CNc2ccc(NC(=O)c3cc(Cl)ccc3O)c(Cl)c2)cc1	80.7	100	22.4	3.61	
CC(C)[C@H](NC(=O)c1cc(Cl)ccc1O)C(=O)Nc1ccc(NC2CCCC2)cc1Cl	111		28.9	3.83	
CC(C)(C)OC(=O)NCCNc1ccc(NC(=O)c2cc(Cl)ccc2O)c(Cl)c1	25	100	9	2.78	
O=C(Nc1ccc(NCc2ccc(C(F)(F)F)cc2)cc1Cl)c1cc(Cl)ccc1O	62.7		43.8	1.43	
Cc1ccc(O)c(C(=O)Nc2ccc(NC3CCCC3)cc2Cl)c1	30.9		11.4	2.72	
CC(=O)Nc1ccc(NC(=O)c2cc(Cl)ccc2O)c(Cl)c1		0			
O=C(Nc1ccc(NC2CCCC2)cc1F)c1cc(Cl)ccc1O	51		49.1	1.04	
O=C(Nc1ccc(NCc2cc(F)cc(C(F)(F)F)c2)cc1Cl)c1cc(Cl)ccc1O	30.9	100	26.7	1.16	
O=C(Nc1ccc(NCc2ccc(F)cc2)cc1Cl)c1cc(Cl)ccc1O	54.4	100	16	3.4	
O=C(Nc1ccc(NCc2ccc3cn[nH]c3c2)cc1Cl)c1cc(Cl)ccc1O	45.3		9.7	4.65	
O=C(Nc1ccc(NCc2cc(F)cc(Cl)c2)cc1Cl)c1cc(Cl)ccc1O	11.1		8.7	1.28	
CS(=O)(=O)Nc1ccc(Cl)cc1C(=O)Nc1ccc(NC2CCCC2)cc1Cl	35.4		20.6	1.72	
O=C(Nc1ccc(NCC2CC2)cc1Cl)c1cc(Cl)ccc1O	14.4	100	10.4	1.38	
CCCN(CCC)c1ccc(NC(=O)c2cc(Cl)ccc2O)c(Cl)c1	10.7	100	16	0.67	
